In BindingDB's records for doi:10.1021/jm9800595 (Purdue University, 1998):

These compounds were tested against T1, Gag-Pol polyprotein [588-1027]/[588-1147] (Human immunodeficiency virus 1, UniProt P04585) (assay: HIV-1 RT Assay). Details: pH 7.9.
T1 construct: 588-1027; 588-1147

Row | SMILES | IC50 [µM]
1 | COC(=O)c1cc(C(=CC(=O)O)c2cc(Cl)c(OC)c(C(=O)OC)c2)cc(Cl)c1OC [3,3-Dichloro-4,4-dimethoxy-5,5-bis(methoxycarbonyl)-3,3-diphenylpropenoic Acid] | > 100
2 | CC1(C)OC(=O)c2cc(C(=CCCBr)c3cc(Cl)c4c(c3)C(=O)OC(C)(C)O4)cc(Cl)c2O1 [6-[4-bromo-1-(8-chloro-2,2-dimethyl-4-oxo-2,4-dihydro-1,3-benzodioxin-6-yl)but-1-en-1-yl]-8-chloro-2,2-dimethyl-2,4-dihydro-1,3-benzodioxin-4-one] | > 100
3 | CC1(C)OC(=O)c2cc(C(=CCCO)c3cc(Cl)c4c(c3)C(=O)OC(C)(C)O4)cc(Cl)c2O1 [8-chloro-6-[1-(8-chloro-2,2-dimethyl-4-oxo-2,4-dihydro-1,3-benzodioxin-6-yl)-4-hydroxybut-1-en-1-yl]-2,2-dimethyl-2,4-dihydro-1,3-benzodioxin-4-one] | > 100
4 | COC=C(c1cc(Br)c(OC)c(C(=O)OC)c1)c1cc(Br)c(OC)c(C(=O)OC)c1 [Alkenyldiarylmethane (ADAM) 5] | > 100
5 | COC(=O)c1cc(C(=CCCCC(=O)O)c2cc(Cl)c(OC)c(C(=O)OC)c2)cc(Cl)c1OC [Alkenyldiarylmethane (ADAM) 25] | > 100
6 | COc1c(Cl)cc(C(=CCCCC(=O)O)c2cc(Cl)c(OC)c(C(=O)O)c2)cc1C(=O)O [Alkenyldiarylmethane (ADAM) 26] | > 100
7 | COc1c(Cl)cc(C(=CCC(=O)O)c2cc(Cl)c(OC)c(C(=O)O)c2)cc1C(=O)O [Alkenyldiarylmethane (ADAM) 27] | > 100
8 | C=C(c1cc(Br)c(OC)c(C(=O)OC)c1)c1cc(Br)c(OC)c(C(=O)OC)c1 [methyl 3-bromo-5-{1-[3-bromo-4-methoxy-5-(methoxycarbonyl)phenyl]ethenyl}-2-methoxybenzoate] | > 100
9 | COC(=O)c1cc(C(=CCCO)c2cc(Cl)c(OC)c(C(=O)OC)c2)cc(Cl)c1OC [methyl 3-chloro-5-{1-[3-chloro-4-methoxy-5-(methoxycarbonyl)phenyl]-4-hydroxybut-1-en-1-yl}-2-methoxybenzoate] | > 100
10 | COC(=O)c1cc(C(=CC(=O)OC(C)(C)C)c2cc(Cl)c(OC)c(C(=O)OC)c2)cc(Cl)c1OC [methyl 5-[3-(tert-butoxy)-1-[3-chloro-4-methoxy-5-(methoxycarbonyl)phenyl]-3-oxoprop-1-en-1-yl]-3-chloro-2-methoxybenzoate] | > 100
